# Assay results reported in patent US20110092453A1, “TREATMENTS AND PREVENTION OF HYDROCEPHALUS” (THE UNIVERSITY OF MANCHESTER, priority 2007, published 2011).
# Experiments:
# [1] = system: germinal epithelium cells; conditions: in the presence of 10% HC CSF; n=3
# [2] = Effect of supplementation on mother's weight through pregnancy; type: in vivo, rat; conditions: 2.5 mg/kg daily injection from 14 days prior to mating to day 20; no significant differences
# Experimental: Mothers were injected daily with 2.5 mg/kg of the supplements folic acid or folinic acid or saline controls. Injections were started 14 days prior to mating and continued throughout pregnancy up to harvesting of the fetuses at day 20. Mothers were weighed at the same time each day and data converted to % of starting weight at day 0. Results were averaged across the 3 mothers (2 for saline treatment) and are plotted as shown mean±SD.
# The hypothesis was tested further using the H-Tx model of EOHC. Mothers were injected daily with 2.5 mg/kg of the supplements folic acid (3 mothers-31 pups) or folinic acid (3 mothers-35 pups) or saline controls (2 mothers-20 pups). Injections were started 14 days prior to mating and continued throughout pregnancy up to harvesting of the fetuses at day 20.
# H-Tx model of EOHC = test: In vivo supplementation of mothers, numbers of affected HC fetuses; set-up: species or system rat; conditions: long term: 2.5 mg/kg daily from 14 days prior to mating to day 20; saline controls 45%
# Experimental: (§1) Mothers were injected daily with 2.5 mg/kg of the supplements folic acid or folinic acid or saline controls. Injections were started 14 days prior to mating and continued throughout pregnancy up to harvesting of the fetuses at day 20. Fetuses were harvested on Day20 of gestation and each fetus was scored as affected HC or normal. The percentage of normal or affected fetuses in each litter was then calculated and results were averaged across the 3 mothers (2 for saline treatment) and are plotted as shown, mean±SD.
# as §1, with “acid.” for “acid or saline controls.”, “at E17 of the pregnancy” for “14 days prior to mating”, “through the rest of the” for “throughout”
# Timed pregnancies of H-Tx or Wistar rats were harvested from pregnant dams killed by intraperitoneal injection of sodium pentobarbitone. […]
# Female rats were handled for one week prior to the start of the supplementation protocol to decrease handling stress. […] Stained sections were photographed on a Lecia DMLB photomicroscope and analysed using Metaview software. […]
# [3] = human population, supplementation of female diets; data from reports; cited from earlier work
SMILES,"uptake, % of that in the absence of added CSF [1] [%]",weight of the mothers compared to saline treated animals [2],incidence of HC (percentage of affected fetuses in the litter) (H-Tx model of EOHC) [%],effect on the incidence of HC [3]
Nc1nc2ncc(CNc3ccc(C(=O)N[C@@H](CCC(=O)O)C(=O)O)cc3)nc2c(=O)[nH]1 [[^3H]-folic acid],53±13,,,
Nc1nc2ncc(CNc3ccc(C(=O)N[C@@H](CCC(=O)O)C(=O)O)cc3)nc2c(=O)[nH]1 [folic acid],,slightly increased weight,60,does not have any significant effect
